According to patent US9383364B2, “Predictive marker of DNMT1 inhibitor therapeutic efficacy and methods of using the marker” (priority 2011, dated 2016):
Entries after “also recorded” stand apart in the source; their conditions may differ. Where two headings read alike, the source gives them in different places.

Tests used:
DNMT1 [1] = biological target: T1, DNMT1 (Homo sapiens, UniProt P26358); test: DNMT1 activity in nuclear extracts from treated cells; format: cell-based; design: endogenous in cells; details: FIG. 5B
From the text: (§1) The assays use recombinant Human DNMT1 (FIG. 5A) or nuclear extracts prepared from cells treated with XB05 (BX11) or XB05a (BX12) (FIG. 5B).
Target sequence in this assay (P26358 whole entry, species assumed): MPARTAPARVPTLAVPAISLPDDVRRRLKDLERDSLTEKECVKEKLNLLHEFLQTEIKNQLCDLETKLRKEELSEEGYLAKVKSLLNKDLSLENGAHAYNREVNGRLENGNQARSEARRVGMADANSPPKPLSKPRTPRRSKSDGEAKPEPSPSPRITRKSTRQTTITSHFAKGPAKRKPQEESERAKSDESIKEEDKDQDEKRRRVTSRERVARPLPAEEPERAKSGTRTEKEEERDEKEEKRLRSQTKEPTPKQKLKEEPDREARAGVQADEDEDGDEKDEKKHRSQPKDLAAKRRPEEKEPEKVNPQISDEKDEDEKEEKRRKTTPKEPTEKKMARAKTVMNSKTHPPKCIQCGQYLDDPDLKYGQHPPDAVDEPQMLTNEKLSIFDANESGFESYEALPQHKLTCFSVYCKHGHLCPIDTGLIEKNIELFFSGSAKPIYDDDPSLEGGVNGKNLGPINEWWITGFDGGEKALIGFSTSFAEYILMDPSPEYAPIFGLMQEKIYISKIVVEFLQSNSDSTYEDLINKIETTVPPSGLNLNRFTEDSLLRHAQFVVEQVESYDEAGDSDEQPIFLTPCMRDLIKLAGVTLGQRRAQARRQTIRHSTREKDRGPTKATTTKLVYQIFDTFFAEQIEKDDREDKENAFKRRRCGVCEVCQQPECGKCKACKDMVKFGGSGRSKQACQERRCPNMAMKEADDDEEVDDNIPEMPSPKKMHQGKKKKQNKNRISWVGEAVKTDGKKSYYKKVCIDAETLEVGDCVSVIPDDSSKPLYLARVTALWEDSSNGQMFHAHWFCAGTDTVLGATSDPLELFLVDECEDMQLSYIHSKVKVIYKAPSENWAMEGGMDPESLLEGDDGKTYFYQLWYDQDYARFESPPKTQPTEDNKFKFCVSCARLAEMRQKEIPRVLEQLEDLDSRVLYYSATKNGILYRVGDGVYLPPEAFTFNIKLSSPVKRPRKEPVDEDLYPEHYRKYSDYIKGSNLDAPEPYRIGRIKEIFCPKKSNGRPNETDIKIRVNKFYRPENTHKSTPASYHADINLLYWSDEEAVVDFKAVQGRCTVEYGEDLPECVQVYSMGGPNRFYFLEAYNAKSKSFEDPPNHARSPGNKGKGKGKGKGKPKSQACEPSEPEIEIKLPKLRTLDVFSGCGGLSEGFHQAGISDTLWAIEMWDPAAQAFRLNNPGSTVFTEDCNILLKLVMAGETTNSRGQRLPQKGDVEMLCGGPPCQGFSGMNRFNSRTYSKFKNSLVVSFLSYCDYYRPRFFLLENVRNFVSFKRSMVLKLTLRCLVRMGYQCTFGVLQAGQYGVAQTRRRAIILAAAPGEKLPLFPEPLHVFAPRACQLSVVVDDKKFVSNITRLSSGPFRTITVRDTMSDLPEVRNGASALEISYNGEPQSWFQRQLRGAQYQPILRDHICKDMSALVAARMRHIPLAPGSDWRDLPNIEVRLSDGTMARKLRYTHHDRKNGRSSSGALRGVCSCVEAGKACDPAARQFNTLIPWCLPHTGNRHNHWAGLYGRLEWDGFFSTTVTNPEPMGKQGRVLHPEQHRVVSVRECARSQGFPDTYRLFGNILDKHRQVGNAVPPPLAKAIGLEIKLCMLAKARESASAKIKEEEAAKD

HCT116 xenografts = test: HCT116 xenografts; details: in vivo
endothelial cell (HUVEC) = test: transwell migration and tube formation assay; format: cell-based; details: 800 nM XB05 (BX11)
[2] = test system: MDA-MB-231 breast cancer cells; test: tumorsphere formation assay; format: cell-based; details: day 12 after plating
Experimental: FIG. 4D are data from tumorsphere formation assays for MDA-MB-231 breast cancer cells on day 12 after plating. The data shown are representative images from three separate experiments.
FIG. 4E is a graph of the data from the tumorsphere formation assays for MDA-MB-231 breast cancer cells on day 12 after plating.
(§2) BX11 (XB05) has potent antiproliferative and cytotoxic activity on a variety of breast cancer cell types, with some cell types having GI50 values less than or equal to 10 μM. There were several cell lines that seemed particularly sensitive to the cytotoxic effects of BX11 (BX05). […] The MDA-MB-231 cell line is derived from a triple negative breast cancer (TNBC) and MDA-MB-435 was originally described as being derived from a TNBC, although its origin is now uncertain (it is unquestionably derived from the same source as the M14 melanoma cell line and many believe it is a melanoma, although some argue that both cell lines are derived from a breast carcinoma). […] This latter assay is often used to assess activity against the subpopulation of stem-like cancer cells with enhanced tumor-initiating capacity.

HCT116 cells [3] = test: induction of senescence; format: cell-based; details: 96 h with 100 nM XB05 (BX11)
[4] = test system: GSTP1 promoter from LNCaP cells; test: methylation specific PCR of GSTP1 promoter; format: cell-based; details: 100 nm XB05 (BX11)
global DNA methylation = test: global DNA methylation; format: cell-based
From the text: XB05 (BX11) has activities that slightly differ from other agents in this class of compounds. This is illustrated not only by the NCI 60 data, but also by the effects of XB05 (BX11) and 5-aza on cancer cells and tumor xenografts (FIG. 7). […] XB05 (BX11) and 5-aza may inhibit DNMT activity by different mechanisms.

[5] = test system: MDA-MB-231 breast cancer cells; test: soft agar colony formation assay; format: cell-based; details: stained 21 days after plating
Experimental: FIG. 4B are data from soft agar colony formation assays for MDA-MB-231 breast cancer cells. The cells were stained with crystal violet 21 days after plating.
FIG. 4C is a graph of the data from the soft agar colony formation assays for MDA-MB-231 breast cancer cells. The data shown are the mean±standard error (n=3).
as §2

[6] = test system: MDA-MB-231 breast cancer cells; test: RT-PCR and Western blotting of methylated (repressed) genes; format: cell-based; details: 1 μM BX11 (XB05), 72 hours, control genes GAPDH and β-actin unchanged
Experimental: Experiments described above were performed to test the effect of BX11 (XB05) on DNMT1 activity. The expression of a number of methylated (repressed) genes in MDA-MB-231 breast cancer cells was further determined using both RT-PCR and Western blotting following treatment with vehicle (control), 1 μM BX11 (XB05), or 10 μM 5-azacytidine (positive control).

[7] = test system: DU145 and LNCaP prostate cancer cells; test: RT-PCR mRNA expression of silenced tumor suppressor genes; format: cell-based
MDA-MB-231 = test: NCI60 breast cancer panel, cytotoxic effect; format: cell-based, human; details: 1 μM BX11, FIG. 4A
Experimental: (§3) FIG. 4A is NCI60 data showing the effect of XB05 (BX11) on proliferation of various breast cancer cell lines. All cells lines are sensitive to XB05 (BX11) cytostatic effects (GI50<100 nM), whereas a few are especially susceptible to cytotoxic effects (e.g., see 1 μM XB05 (BX11) data points).
as §2

MDA-MB-435 = test: NCI60 breast cancer panel, cytotoxic effect; format: cell-based, human; details: 1 μM BX11, FIG. 4A
Experimental: as §3, §2

breast cancer cell lines = test: NCI60 data, proliferation of breast cancer cell lines; format: cell-based, human; details: all breast cancer cell lines, FIG. 4A, read-out: GI50 (cytostatic effects)
Experimental: as §3
A variety of different breast cancer cell lines were treated with 1 μM BX11, and the cytotoxic effect of 1 μM BX11 was determined. The cytotoxicity data for each breast cancer cell line was correlated with the SOX9 level present in each cell line prior to treatment.
as §2

LLC cells = test: clonogenic survival and MTT proliferation assays; format: cell-based; details: murine lung carcinoma, negative control
From the text: (§4) (3a) results from the NCI 60 cell screen showing a good correlation between the levels of expression of SOX9 and cell death induced by XB05 (BX11); (3b) Western blot showing expression of SOX9 in sensitive cell lines; (3c) clonogenic survival assay in cells sensitive or resistant to XB05 (BX11); (3d) MTT proliferation assays in cells sensitive or resistant to XB05 (BX11).
(§5) FIG. 3B are Western blots (WB) confirming expression of Biomarker X (SOX9) protein in the sensitive cell lines. […] Where indicated, HCT116 cells (colon cancer, sensitive to XB05 (BX11)) and LLC cells (murine lung carcinoma, resistant to XB05 (BX11)) are shown as positive and negative controls, respectively. (SOX9 levels were not assayed in LLC cells because they are of mouse origin).

HCT116 cells [8] = test: clonogenic survival and MTT proliferation assays; format: cell-based; details: colon cancer, positive control
From the text: as §4, §5

DNMT1 [9] = biological target: T1, DNMT1; test: in vitro DNMT1 activity assay; format: biochemical
From the text: FIG. 9A is a schematic of an exemplary in vitro DNMT activity assay.
as §1
Target sequence in this assay (P26358 whole entry): as the sequence (P26358 whole entry, species assumed) above

HOP92 cells = test: SOX9 siRNA knockdown, cell number and viability; format: cell-based; details: 60 nM siRNA 24 hours, then XB05 48 hours
Experimental: In a second set of experiments, HOP92 cells were transfected for 24 hours with 60 nM siRNA against SOX9, control siRNA, or no RNA (mock). Knockdown of SOX9 was confirmed by Western blots (WB). Cells were then treated with XB05 (BX11) as indicated. After 48 hours, the cell number and viability for each sample was determined using an automated cell counter.

A549 xenografts = test: A549 lung cancer xenograft model
From the text: (§6) U.S. Patent Publication No. 2008/0188570 (herein incorporated by reference in its entirety) further discloses more than 50 analogs of XB05 (BX11). […] In some embodiments, the DNMT1 inhibitor is XB05a (BX12).

[10] = test system: several cancer cell lines, including prostate cancer; test: activity against cancer cell lines (Table 2); format: cell-based
A549 lung cancer cells = test: sensitivity of A549 cells to XB05; format: cell-based
From the text: The present invention is based on the discovery that SOX9 expression in cancer cells is correlated with sensitivity to cell killing by XB05 (BX11). The COMPARE algorithm (Andrianasolo et al., J. Nat. Prod. 69:576-579, 2006) was used to search for correlations between response to XB05 (BX11) and gene expression using the NCI 60 cell line screen for XB05 (BX11) and the publicly available microarray studies of the NCI 60 panel. […] High levels of SOX9 expression were associated with high sensitivity to XB05 (BX11) across the 60 cell lines, as shown in FIG. 3. […] The experiments have been repeated multiple times and differences are statistically significant (p<0.05).

aqueous stability = format: physicochemical; details: addressed by cremaphor/ethanol/NaCl formulation
From the text: as §6

Colo-205 xenografts = Colo-205 xenografts in nude mice; format: in vivo; details: for non-specific toxicities as judged by body weight: 25 mg/kg daily for 21 days i.v., FIG. 7C; for in vivo antitumor efficacy: 25 mg/kg/day i.v. for 21 days, FIGS. 7A and 7B
[11] = anti-proliferative assays; format: cell-based
From the text: as §6

Compound: CCCCCC(O)C#CC(F)(F)Br (centres unmarked) [XB05 (BX11)]
- DNMT1 activity (DNMT1 [1]): inhibitory effects
- tumor necrosis ("hollow" tumors) (HCT116 xenografts): central tumor necrosis
- endothelial cell function (transwell migration, tube formation) (endothelial cell (HUVEC)): inhibition; also recorded: inhibitory effects
- toxicity to HUVECs (endothelial cell (HUVEC)): non-toxic
- endothelial cell function (transwell migration, tube formation) (endothelial cell (HUVEC); listed as XB05): Inhibits endothelial cell activity in in vitro assays.
- tumorsphere growth [2]: inhibit
- senescence in cancer cells (HCT116 cells [3]): induction of senescence; also recorded: induce cellular senescence
- senescence in cancer cells (HCT116 cells [3]; listed as XB05): Induces senescence in cancer cells.
- promoter methylation [4]: inhibits
- effect on global DNA methylation (global DNA methylation): no obvious effect
- effect on global DNA methylation (global DNA methylation; listed as XB05): including no effect on global DNA methylation.
- colony formation in soft agar [5]: inhibit
- expression of genes commonly silenced by methylation [6]: re-expressed
- expression of genes commonly silenced by methylation ([6]; listed as BX11 (XB05)): specific reactivation
- reactivation of silenced tumor suppressor genes [7]: reactivates
- reactivation of silenced tumor suppressor genes ([7]; listed as XB05): reactivates
- cell death (MDA-MB-231): significant cell death
- cell death (MDA-MB-435): significant cell death
- GI50 (breast cancer cell lines): < 100 nM
- sensitivity to XB05 (BX11) (LLC cells): resistant
- sensitivity to XB05 (BX11) (HCT116 cells [8]): sensitive
- DNMT1 activity (DNMT1 [9]; recombinant human DNMT1, FIG. 5A): inhibitory effects
- DNMT activity (DNMT1 [9]; summary statement, assay form not specified): Inhibits
- anti-proliferative effects after knockdown of SOX9 using a specific siRNA (HOP92 cells): completely blocked
- tumor growth delay, alone (A549 xenografts; i.v. 25 mg/kg/day x 21, monotherapy): significant tumor growth delay
- tumor growth delay, in combination with cisplatin (A549 xenografts; i.v. 25 mg/kg/day x 21 plus cisplatin 4 x 4 mg/kg every 3 days): significant tumor growth delay
- potent activity against several cancer cell lines [10]: Discovered by chance to have potent activity (<100 nM) against
- sensitivity to XB05 (BX11) (A549 lung cancer cells): modest sensitivity

Compound: CC/C=C\CCC(O)C#CC(F)(F)Br (centres unmarked) [XB05a (BX12)]
- aqueous stability (aqueous stability): poor
- non-specific toxicities as judged by body weight (Colo-205 xenografts): no evidence of any severe non-specific toxicities
- in vivo antitumor efficacy (Colo-205 xenografts): in vivo antitumor efficacy
- activity in DNMT1 inhibition assays compared to XB05 (BX11) (DNMT1 [9]): equivalent or better activity
- antitumor activity alone compared with 5-aza alone (A549 xenografts; 5-aza at 6 mg/kg): more active
- myelotoxicity (A549 xenografts; data not shown): no significant myelotoxicity
- toxicity (body weight loss) compared with 5-aza or cisplatin (A549 xenografts; mouse, in vivo): much less toxicity
- activity in anti-proliferative assays compared to XB05 (BX11) [11]: equivalent or better activity

Compound: Nc1ncn([C@@H]2O[C@H](CO)[C@@H](O)[C@H]2O)c(=O)n1 [5-aza, 5-azacytidine, reference compound]
- effect on global DNA methylation (global DNA methylation): causes global DNA methylation
- activity relative to XB05 (BX11) (global DNA methylation; 5-aza used at higher concentrations than XB05 (BX11)): less active
- maximally tolerated dose (A549 xenografts; mouse, in vivo): 6 mg/kg

Compound: CCCCCC(C#CC(F)(F)Br)OC(C)=O (racemic) [XB05b (BX17)]
- non-specific toxicities as judged by body weight (Colo-205 xenografts): no evidence of any severe non-specific toxicities
- in vivo antitumor efficacy (Colo-205 xenografts): in vivo antitumor efficacy
